PubChem BioAssay (NCI)
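Five concentrations, 48 hours, 96-well plates. TGI: total growth inhibition.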

Legend:
Test in all cases: NCI-60 cell line screen, 48 h
[1] = test system: HS 578T breast
[2] = test system: UO-31 renal
[3] = test system: M14 melanoma
[4] = test system: ACHN renal
[5] = test system: BT-549 breast
[6] = test system: SR leukemia
[7] = test system: MCF7 breast
[8] = test system: MDA-MB-435
[9] = test system: SF-539 CNS
[10] = test system: U251 CNS
[11] = test system: SF-268 CNS
[12] = test system: A549 NSCLC
[13] = test system: OVCAR-8 ovarian
[14] = test system: MDA-MB-231 breast
[15] = test system: SK-MEL-5 melanoma
[16] = test system: UACC-257 melanoma
[17] = test system: SNB-75 CNS
[18] = test system: 786-0 renal
[19] = test system: HCT-15 colon
[20] = test system: SW-620 colon
[21] = test system: OVCAR-3 ovarian
[22] = test system: SK-MEL-2 melanoma
[23] = test system: T-47D breast
[24] = test system: HOP-92 NSCLC
[25] = test system: SN12C renal
[26] = test system: HL-60(TB) leukemia
[27] = test system: HT29 colon
[28] = test system: PC-3 prostate
[29] = test system: SF-295 CNS
[30] = test system: OVCAR-5 ovarian
[31] = test system: HCT-116 colon
[32] = test system: NCI-H23 lung
[33] = test system: CCRF-CEM leukemia
[34] = test system: A498 renal
[35] = test system: MOLT-4 leukemia
[36] = test system: EKVX NSCLC
[37] = test system: SK-MEL-28 melanoma
[38] = test system: RXF 393 renal
[39] = test system: HOP-62 NSCLC
[40] = test system: KM12 colon
[41] = test system: DU-145 prostate
[42] = test system: LOX IMVI melanoma
[43] = test system: UACC-62 melanoma
[44] = test system: RPMI-8226 leukemia
[45] = test system: SK-OV-3 ovarian
[46] = test system: K-562 leukemia
[47] = test system: IGROV1 ovarian
[48] = test system: NCI-H460 lung
[49] = test system: MALME-3M melanoma
[50] = test system: TK-10 renal
[51] = test system: MDA-N
[52] = test system: NCI-H226 lung
[53] = test system: SNB-19 CNS
[54] = test system: HCC-2998 colon
[55] = test system: OVCAR-4 ovarian
[56] = test system: CAKI-1 renal
[57] = test system: NCI-H522 lung
[58] = test system: COLO 205 colon

## CC(C)(C)OC(=O)N1CCCC1=O
[1]
  TGI: > 10 µM
[2]
  TGI: > 10 µM
[3]
  TGI: > 10 µM
[4]
  TGI: > 10 µM
[5]
  TGI: > 10 µM
[6]
  TGI: > 10 µM
[7]
  TGI: > 10 µM
[8]
  TGI: > 10 µM
[9]
  TGI: > 10 µM
[10]
  TGI: > 10 µM
[11]
  TGI: > 10 µM
[12]
  TGI: > 10 µM
[13]
  TGI: > 10 µM
[14]
  TGI: > 10 µM
[15]
  TGI: > 10 µM
[16]
  TGI: > 10 µM
[17]
  TGI: > 10 µM
[18]
  TGI: > 10 µM
[19]
  TGI: > 10 µM
[20]
  TGI: > 10 µM
[21]
  TGI: > 10 µM
[22]
  TGI: > 10 µM
[23]
  TGI: > 10 µM
[24]
  TGI: > 10 µM
[25]
  TGI: > 10 µM
[26]
  TGI: > 10 µM
[27]
  TGI: > 10 µM
[28]
  TGI: > 10 µM
[29]
  TGI: > 10 µM
[30]
  TGI: > 10 µM
[31]
  TGI: > 10 µM
[32]
  TGI: > 10 µM
[33]
  TGI: > 10 µM
[34]
  TGI: > 10 µM
[35]
  TGI: > 10 µM
[36]
  TGI: > 10 µM
[37]
  TGI: > 10 µM
[38]
  TGI: > 10 µM
[39]
  TGI: > 10 µM
[40]
  TGI: > 10 µM
[41]
  TGI: > 10 µM
[42]
  TGI: > 10 µM
[43]
  TGI: > 10 µM
[44]
  TGI: > 10 µM
[45]
  TGI: > 10 µM
[46]
  TGI: > 10 µM
[47]
  TGI: > 10 µM
[48]
  TGI: > 10 µM
[49]
  TGI: > 10 µM
[50]
  TGI: > 10 µM
[51]
  TGI: > 10 µM
[52]
  TGI: > 10 µM
[53]
  TGI: > 10 µM
[54]
  TGI: > 10 µM

## Brc1ccc(N=NN2CCCC2)cc1
[55]
  TGI: > 100 µM
[1]
  TGI: > 100 µM
[2]
  TGI: > 100 µM
[3]
  TGI: > 100 µM
[4]
  TGI: > 100 µM
[5]
  TGI: > 100 µM
[6]
  TGI: > 100 µM
[7]
  TGI: > 100 µM
[8]
  TGI: > 100 µM
[9]
  TGI: > 100 µM
[10]
  TGI: > 100 µM
[56]
  TGI: > 100 µM
[11]
  TGI: > 100 µM
[12]
  TGI: > 100 µM
[14]
  TGI: > 100 µM
[15]
  TGI: > 100 µM
[16]
  TGI: > 100 µM
[18]
  TGI: > 100 µM
[19]
  TGI: > 100 µM
[20]
  TGI: > 100 µM
[21]
  TGI: > 100 µM
[22]
  TGI: > 100 µM
[23]
  TGI: 97.3 µM
[24]
  TGI: > 100 µM
[57]
  TGI: > 100 µM
[25]
  TGI: > 100 µM
[26]
  TGI: > 100 µM
[27]
  TGI: > 100 µM
[28]
  TGI: > 100 µM
[29]
  TGI: > 100 µM
[30]
  TGI: > 100 µM
[31]
  TGI: > 100 µM
[32]
  TGI: > 100 µM
[33]
  TGI: > 100 µM
[34]
  TGI: > 100 µM
[35]
  TGI: > 100 µM
[36]
  TGI: > 100 µM
[37]
  TGI: > 100 µM
[38]
  TGI: > 100 µM
[39]
  TGI: > 100 µM
[40]
  TGI: > 100 µM
[41]
  TGI: > 100 µM
[42]
  TGI: > 100 µM
[43]
  TGI: > 100 µM
[44]
  TGI: > 100 µM
[45]
  TGI: > 100 µM
[58]
  TGI: > 100 µM
[46]
  TGI: > 100 µM
[47]
  TGI: > 100 µM
[48]
  TGI: > 100 µM
[49]
  TGI: > 100 µM
[50]
  TGI: > 100 µM
[51]
  TGI: > 100 µM
[52]
  TGI: > 100 µM
[53]
  TGI: > 100 µM
[54]
  TGI: > 100 µM

## COc1cccc2c(Nc3ccc(S(=O)(=O)Nc4ncccn4)cc3)c3ccc([N+](=O)[O-])cc3nc12
[55]
  TGI: > 100 µM
[1]
  TGI: > 100 µM
[2]
  TGI: > 100 µM
[3]
  TGI: > 100 µM
[4]
  TGI: > 100 µM
[5]
  TGI: > 100 µM
[6]
  TGI: 13.9 µM
[7]
  TGI: > 100 µM
[8]
  TGI: > 100 µM
[9]
  TGI: > 100 µM
[10]
  TGI: > 100 µM
[56]
  TGI: > 100 µM
[11]
  TGI: > 100 µM
[12]
  TGI: > 100 µM
[14]
  TGI: > 100 µM
[15]
  TGI: > 100 µM
[16]
  TGI: > 100 µM
[18]
  TGI: > 100 µM
[19]
  TGI: > 100 µM
[20]
  TGI: > 100 µM
[21]
  TGI: > 100 µM
[22]
  TGI: > 100 µM
[23]
  TGI: > 100 µM
[24]
  TGI: > 100 µM
[57]
  TGI: > 100 µM
[25]
  TGI: > 100 µM
[26]
  TGI: 88.6 µM
[27]
  TGI: > 100 µM
[28]
  TGI: > 100 µM
[29]
  TGI: > 100 µM
[30]
  TGI: > 100 µM
[31]
  TGI: > 100 µM
[32]
  TGI: > 100 µM
[33]
  TGI: > 100 µM
[34]
  TGI: > 100 µM
[35]
  TGI: 81.2 µM
[36]
  TGI: > 100 µM
[37]
  TGI: > 100 µM
[38]
  TGI: > 100 µM
[39]
  TGI: > 100 µM
[40]
  TGI: > 100 µM
[41]
  TGI: > 100 µM
[42]
  TGI: > 100 µM
[43]
  TGI: > 100 µM
[44]
  TGI: > 100 µM
[45]
  TGI: > 100 µM
[58]
  TGI: > 100 µM
[46]
  TGI: > 100 µM
[47]
  TGI: > 100 µM
[48]
  TGI: > 100 µM
[49]
  TGI: > 100 µM
[50]
  TGI: > 100 µM
[51]
  TGI: > 100 µM
[52]
  TGI: > 100 µM
[53]
  TGI: > 100 µM
[54]
  TGI: > 100 µM
